What all share (format): functional
In test [1] the test system is Mycobacterium tuberculosis. The test is described as follows: Antibacterial activity against multidrug-resistant Mycobacterium tuberculosis MS-115 under anaerobic condition assessed as growth inhibition at 0.1 ug/ml by BACTEC method. Conditions: read-out: GI.
The test system of test [2] is Mycobacterium tuberculosis. As to the kind of experiment: Antibacterial activity against multidrug-resistant Mycobacterium tuberculosis MS-115 under anaerobic condition assessed as growth inhibition at 10 to 20 ug/ml by BACTEC method.
Test [3] deals with Mycobacterium tuberculosis. The test is described as follows: Antibacterial activity against multidrug-resistant Mycobacterium tuberculosis MS-115 under anaerobic condition assessed as growth inhibition at 1 ug/ml by BACTEC method. As to conditions: read-out: GI.
In test [4] the test system is Mycobacterium tuberculosis. As to the kind of experiment: Antibacterial activity against multidrug-resistant Mycobacterium tuberculosis MS-115 under anaerobic condition by BACTEC method.
The test system of test [5] is Mycobacterium tuberculosis. As to the kind of experiment: Antibacterial activity against multidrug-resistant Mycobacterium tuberculosis MS-115 under anaerobic condition assessed as growth inhibition at 20 ug/ml by BACTEC method. Conditions: read-out: GI.
The test system of test [6] is Mycobacterium tuberculosis. The test is described as follows: Antibacterial activity against multidrug-resistant Mycobacterium tuberculosis MS-115 under anaerobic condition assessed as growth inhibition at 10 ug/ml by BACTEC method. As to conditions: read-out: GI.
For test [7], the system named is Mycobacterium tuberculosis. The test is described as follows: Antibacterial activity against multidrug-resistant Mycobacterium tuberculosis MS-115 under anaerobic condition assessed as growth inhibition at 100 ug/ml by BACTEC method. Conditions: read-out: GI.
Test [8] concerns Mycobacterium tuberculosis. As to the kind of experiment: Antibacterial activity against multidrug-resistant Mycobacterium tuberculosis MS-115 under anaerobic condition assessed as growth inhibition at 2 ug/ml by BACTEC method. Conditions: read-out: GI.
Test [9] concerns Mycobacterium tuberculosis. As to the kind of experiment: Antibacterial activity against multidrug-resistant Mycobacterium tuberculosis MS-115 under anaerobic condition assessed as growth inhibition at 5 ug/ml by BACTEC method. Conditions: read-out: GI.

Converted amounts (≈) assume the structure as drawn.

`CN[C@@H]1[C@H](O[C@H]2[C@H](O[C@H]3[C@H](O)[C@@H](O)[C@H](N=C(N)N)[C@@H](O)[C@@H]3N=C(N)N)O[C@@H](C)[C@]2(O)C=O)O[C@@H](CO)[C@H](O)[C@H]1O` [STREPTOMYCIN]: the inhibition of growth at 0.1 µg/mL in test [1] was found to be 0%.

Consider `CCCCCCCCCCCCC#Cc1cn(C2C=CC(O)C2)c(=O)[nH]c1=O` (racemic), for which the “growth inhibition (GI)” value in [2] was 100%.

Regarding `CO[C@H]1/C=C/O[C@@]2(C)Oc3c(C)c(O)c4c(O)c(c(/C=N/N5CCN(C)CC5)c(O)c4c3C2=O)NC(=O)/C(C)=C\C=C\[C@H](C)[C@H](O)[C@@H](C)[C@@H](O)[C@@H](C)[C@H](OC(C)=O)[C@@H]1C` [RIFAMPIN], in [3], the inhibition of growth at 1 µg/mL amounted to 0%.

In turn, `CCCCCCCCCCCCC#Cc1cn(C2C=CC(O)C2)c(=O)[nH]c1=O` (single isomer, unassigned; (-)) yielded an MIC99 in test [4] of 10 µg/mL (≈ 25.9 µM). In test [5], the inhibition of growth at 20 µg/mL was 100%. Besides, the inhibition of growth at 10 µg/mL in test [6] stood at 99%.

Take `NC(=O)c1cnccn1` [PYRAZINAMIDE]: in test [7], the inhibition of growth at 100 µg/mL worked out at 0%.

Consider `CC1COc2c(N3CCN(C)CC3)c(F)cc3c(=O)c(C(=O)O)cn1c23` (stereo unspecified) [OFLOXACIN], for which the MIC99 in test [4] was 2 µg/mL (≈ 5.53 µM). Also, the inhibition of growth at 2 µg/mL in test [8] is 100%.

In the case of `CC[C@@H](CO)NCCN[C@@H](CC)CO` [ETHAMBUTOL], in test [9], the inhibition of growth at 5 µg/mL was 0%.

On to `NNC(=O)c1ccncc1` [ISONIAZID], for which, in test [1], the inhibition of growth at 0.1 µg/mL was found to be 0%.

The values are drawn from ChEMBL document CHEMBL2157933, “The synthesis and antituberculosis activity of 5'-nor carbocyclic uracil derivatives” (Bioorg Med Chem, 2012).
